Results: patent US20150105252A1, “SUBSTITUTED PYRAZOLES AS HERBICIDES” (E I DU PONT DE NEMOURS AND COMPANY, priority 2013, published 2015)

What was measured:
[1] = test system: ragweed; experiment: Test C preemergence; assay type: in vivo, Ambrosia elation; settings: preemergence; for Plant response rating, Ragweed: 125 g ai/ha, scale 0 to 100, 0 = no effect, 100 = complete control
Outline: (§1)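 Herbicidal effect is expressed as percent visual control (0–100) judged against untreated plants 13 to 15 days after treatment in the greenhouse. Preemergence pots contained seeds in a soil–sand blend; postemergence plants, 2–18 cm tall, grew in peat-based planting medium.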

[2] = test system: pigweed; experiment: Test A postemergence; assay type: in vivo, Amaranthus retroflexus; settings: Postemergence
Outline: (§2)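 Injury readout: eye-scored versus untreated controls, 0 to 100. Exposure period: ~10 days, greenhouse. Application: soil-directed spray over sown seed (pre) or spray on seedlings 2–10 cm tall with one or two leaves (post), compound carried in non-phytotoxic solvent including surfactant.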

[3] = test system: pigweed; experiment: Test A preemergence; assay type: in vivo, Amaranthus retroflexus; settings: preemergence; for Pigweed plant response rating (0 to 100 scale): 125 g ai/ha, visual injury approx. 10 days after treatment
Outline: as §2

[4] = test system: oilseed rape; experiment: Test C preemergence; assay type: in vivo, Brassica napus; settings: preemergence; for Plant response rating, Oilseed Rape: 125 g ai/ha, scale 0 to 100, 0 = no effect, 100 = complete control
Outline: as §1

[5] = test system: foxtail, giant; experiment: Test C preemergence; assay type: in vivo, Setaria faberii; settings: preemergence; for Plant response rating, Foxtail, Giant: 125 g ai/ha, scale 0 to 100, 0 = no effect, 100 = complete control
Outline: as §1

[6] = test system: barnyardgrass; experiment: Test A preemergence; assay type: in vivo, Echinochloa crus-galli; settings: preemergence; for Barnyardgrass plant response rating (0 to 100 scale, 0 is no effect, 100 is complete control): 125 g ai/ha, visual injury approx. 10 days after treatment; for Barnyardgrass plant response rating: 500 g ai/ha, visual injury after approx. 10 days, 0 to 100 scale (0 no effect, 100 complete control)
Outline: as §2

[7] = test system: velvetleaf; experiment: Test A postemergence; assay type: in vivo, Abutilon theophrasti; settings: Postemergence
Outline: as §2

[8] = test system: lambsquarters; experiment: Test C postemergence; assay type: in vivo, Chenopodium album; settings: for Plant response rating (scale of 0 to 100 where 0 is no effect and 100 is complete control), Lambsquarters: Postemergence, 31 g ai/ha, visually evaluated after 13 to 15 days; for Lambsquarters plant response rating / Plant response rating, Lambsquarters: postemergence; for Lambsquarters plant response rating: 62 g ai/ha, scale 0 to 100
Outline: as §1

[9] = test system: johnsongrass; experiment: Test C postemergence; assay type: in vivo, Sorghum halepense; settings: for Plant response rating (scale of 0 to 100 where 0 is no effect and 100 is complete control), Johnsongrass: Postemergence, 31 g ai/ha, visually evaluated after 13 to 15 days; for Johnsongrass plant response rating / Plant response rating, Johnsongrass: postemergence; for Johnsongrass plant response rating: 62 g ai/ha, scale 0 to 100
Outline: as §1

[10] = test system: velvetleaf; experiment: Test A preemergence; assay type: in vivo, Abutilon theophrasti; settings: preemergence; for Velvetleaf plant response rating (0 to 100 scale): 125 g ai/ha, visual injury approx. 10 days after treatment
Outline: as §2

[11] = test system: wheat; experiment: Test C preemergence; assay type: in vivo, Triticum aestivum; settings: preemergence; for Plant response rating, Wheat: 125 g ai/ha, scale 0 to 100, 0 = no effect, 100 = complete control
Outline: as §1

[12] = test system: corn; experiment: Test C postemergence; assay type: in vivo, Zea mays; settings: for Plant response rating (scale of 0 to 100 where 0 is no effect and 100 is complete control), Corn: Postemergence, 31 g ai/ha, visually evaluated after 13 to 15 days; for Corn plant response rating / Plant response rating, Corn: postemergence; for Corn plant response rating: 62 g ai/ha, scale 0 to 100
Outline: as §1

[13] = test system: blackgrass; experiment: Test C preemergence; assay type: in vivo, Alopecurus myosuroides; settings: preemergence; for Plant response rating, Blackgrass: 125 g ai/ha, scale 0 to 100, 0 = no effect, 100 = complete control
Outline: as §1

[14] = test system: johnsongrass; experiment: Test C preemergence; assay type: in vivo, Sorghum halepense; settings: preemergence; for Plant response rating, Johnsongrass: 125 g ai/ha, scale 0 to 100, 0 = no effect, 100 = complete control
Outline: as §1

[15] = test system: waterhemp; experiment: Test C postemergence; assay type: in vivo, Amaranthus rudis; settings: postemergence; for Plant response rating, Waterhemp: 250 g ai/ha, scale 0 to 100 (0 no effect, 100 complete control); for Waterhemp plant response rating: scale 0 to 100
Outline: as §1

[16] = test system: soybean; experiment: Test C preemergence; assay type: in vivo, Glycine max; settings: preemergence; for Plant response rating, Soybean: 125 g ai/ha, scale 0 to 100, 0 = no effect, 100 = complete control
Outline: as §1

[17] = 31 g ai/ha, visual rating, scale 0 to 100 (0 no effect, 100 complete control), 13 to 15 days
[18] = 62 g ai/ha, scale 0 to 100 (0 no effect, 100 complete control), 13 to 15 days
[19] = 250 g ai/ha, scale 0 to 100, 0 is no effect, 100 is complete control
[20] = 125 g ai/ha, 0 to 100 scale, 0 no effect, 100 complete control
[21] = 500 g ai/ha, 0 to 100 scale (0 no effect, 100 complete control)
[22] = 250 g ai/ha, scale 0 to 100 (0 no effect, 100 complete control)
[23] = 125 g ai/ha, scale 0 to 100, 0 no effect, 100 complete control
[24] = 500 g ai/ha, visual injury after approx. 10 days, 0 to 100 scale (0 no effect, 100 complete control)

## CCc1cc(C(=O)NCC(F)(F)F)nn1Cc1ccnc(SC(F)(F)F)c1 [Compound 214]
[1]; [17]
  Ragweed plant response rating: 85
[1]; [18]
  Ragweed plant response rating: 98
[1]; 13 to 15 days
  Plant response rating, Ragweed: 100
[1]; [19]
  Ragweed plant response rating: 98
[2]; [20]
  Pigweed plant response rating: 100
[2]; [21]
  Pigweed plant response rating: 100
[3]
  Pigweed plant response rating (0 to 100 scale): 100
[4]; [17]
  Oilseed Rape plant response rating: 80
[4]; [18]
  Oilseed Rape plant response rating: 95
[4]; 13 to 15 days
  Plant response rating, Oilseed Rape: 95
[4]; [19]
  Oilseed Rape plant response rating: 95
[5]; [17]
  Foxtail, Giant plant response rating: 90
[5]; [18]
  Foxtail, Giant plant response rating: 98
[5]; 13 to 15 days
  Plant response rating, Foxtail, Giant: 100
[5]; [19]
  Foxtail, Giant plant response rating: 100
[6]
  Barnyardgrass plant response rating (0 to 100 scale, 0 is no effect, 100 is complete control): 100
  Barnyardgrass plant response rating: 100
[7]; [20]
  Velvetleaf plant response rating: 80
[7]; [21]
  Velvetleaf plant response rating: 100
[8]
  Plant response rating (scale of 0 to 100 where 0 is no effect and 100 is complete control), Lambsquarters: 35
  Lambsquarters plant response rating: 50
[8]; [22]
  Plant response rating, Lambsquarters: 80
[8]; [23]
  Plant response rating, Lambsquarters: 75
[9]
  Plant response rating (scale of 0 to 100 where 0 is no effect and 100 is complete control), Johnsongrass: 0
  Johnsongrass plant response rating: 0
[9]; [22]
  Plant response rating, Johnsongrass: 5
[9]; [23]
  Plant response rating, Johnsongrass: 5
[10]
  Velvetleaf plant response rating (0 to 100 scale): 100
[11]; [17]
  Wheat plant response rating: 0
[11]; [18]
  Wheat plant response rating: 0
[11]; 13 to 15 days
  Plant response rating, Wheat: 10
[11]; [19]
  Wheat plant response rating: 40
[12]
  Plant response rating (scale of 0 to 100 where 0 is no effect and 100 is complete control), Corn: 0
  Corn plant response rating: 5
[12]; [22]
  Plant response rating, Corn: 10
[12]; [23]
  Plant response rating, Corn: 5
[13]; [17]
  Blackgrass plant response rating: 85
[13]; [18]
  Blackgrass plant response rating: 40
[13]; 13 to 15 days
  Plant response rating, Blackgrass: 90
[13]; [19]
  Blackgrass plant response rating: 90
[14]; [17]
  Johnsongrass plant response rating: 0
[14]; [18]
  Johnsongrass plant response rating: 40
[14]; 13 to 15 days
  Plant response rating, Johnsongrass: 75
[14]; [19]
  Johnsongrass plant response rating: 90
[15]
  Plant response rating, Waterhemp: 70
  Waterhemp plant response rating: 60
[16]; [17]
  Soybean plant response rating: 60
[16]; [18]
  Soybean plant response rating: 85
[16]; 13 to 15 days
  Plant response rating, Soybean: 90
[16]; [19]
  Soybean plant response rating: 95

## CCCNC(=O)c1cc(OCC)n(Cc2ccnc(C(F)(F)F)c2)n1 [Compound 187]
[1]; [17]
  Ragweed plant response rating: 80
[1]; [18]
  Ragweed plant response rating: 100
[1]; 13 to 15 days
  Plant response rating, Ragweed: 98
[1]; [19]
  Ragweed plant response rating: 100
[2]; [20]
  Pigweed plant response rating: 100
[2]; [21]
  Pigweed plant response rating: 90
[3]
  Pigweed plant response rating (0 to 100 scale): 0
[3]; [24]
  Pigweed plant response rating: 0
[4]; [17]
  Oilseed Rape plant response rating: 50
[4]; [18]
  Oilseed Rape plant response rating: 90
[4]; 13 to 15 days
  Plant response rating, Oilseed Rape: 95
[4]; [19]
  Oilseed Rape plant response rating: 100
[5]; [17]
  Foxtail, Giant plant response rating: 100
[5]; [18]
  Foxtail, Giant plant response rating: 100
[5]; 13 to 15 days
  Plant response rating, Foxtail, Giant: 100
[5]; [19]
  Foxtail, Giant plant response rating: 100
[6]
  Barnyardgrass plant response rating (0 to 100 scale, 0 is no effect, 100 is complete control): 90
  Barnyardgrass plant response rating: 100
[7]; [20]
  Velvetleaf plant response rating: 90
[7]; [21]
  Velvetleaf plant response rating: 100
[8]
  Plant response rating (scale of 0 to 100 where 0 is no effect and 100 is complete control), Lambsquarters: 60
  Lambsquarters plant response rating: 75
[8]; [22]
  Plant response rating, Lambsquarters: 90
[8]; [23]
  Plant response rating, Lambsquarters: 75
[9]
  Plant response rating (scale of 0 to 100 where 0 is no effect and 100 is complete control), Johnsongrass: 0
  Johnsongrass plant response rating: 5
[9]; [22]
  Plant response rating, Johnsongrass: 25
[9]; [23]
  Plant response rating, Johnsongrass: 5
[10]
  Velvetleaf plant response rating (0 to 100 scale): 100
[10]; [24]
  Velvetleaf plant response rating: 100
[11]; [17]
  Wheat plant response rating: 20
[11]; [18]
  Wheat plant response rating: 80
[11]; 13 to 15 days
  Plant response rating, Wheat: 90
[11]; [19]
  Wheat plant response rating: 90
[12]
  Plant response rating (scale of 0 to 100 where 0 is no effect and 100 is complete control), Corn: 5
  Corn plant response rating: 5
[12]; [22]
  Plant response rating, Corn: 65
[12]; [23]
  Plant response rating, Corn: 60
[13]; [17]
  Blackgrass plant response rating: 90
[13]; [18]
  Blackgrass plant response rating: 90
[13]; 13 to 15 days
  Plant response rating, Blackgrass: 90
[13]; [19]
  Blackgrass plant response rating: 95
[14]; [17]
  Johnsongrass plant response rating: 75
[14]; [18]
  Johnsongrass plant response rating: 98
[14]; 13 to 15 days
  Plant response rating, Johnsongrass: 100
[14]; [19]
  Johnsongrass plant response rating: 100
[15]
  Plant response rating, Waterhemp: 95
  Waterhemp plant response rating: 70
[16]; [17]
  Soybean plant response rating: 85
[16]; [18]
  Soybean plant response rating: 95
[16]; 13 to 15 days
  Plant response rating, Soybean: 98
[16]; [19]
  Soybean plant response rating: 98
